Ends that are not written are not given here.
Test system: MRSA
Assay: FITC assay to monitor cellular uptake of peptides (fluorescence microscopy)
Type: cell-based, Staphylococcus aureus
Conditions: 2 hours post-treatment with 1 μM of FITC-peptide agents
Procedure: An FITC assay may be utilized, to monitor cellular uptake of peptides. Peptides were conjugated to fluorescein isothiocyanate (FITC) to monitor uptake using florescence microscopy. FIG. 2A-2B show assay results for several peptides as tested in MRSA (FIG. 2A) and AcB (FIG. 2B) (fluorescent overlays 2 hours post-treatment with 1 μM of FITC peptide agents, scale bar=100 μm).
An FITC assay was utilized to monitor cellular uptake of peptides. Peptides were conjugated to fluorescein isothiocyanate (FITC) to monitor uptake using, florescence microscopy.

Sequence: GIGKWLHSAKKFGKAFVGEIMNS (also: FITC label, site not given here) [Magainin-FITC, Magainin 2 cell penetrating peptide conjugated to fluorescein isothiocyanate (FITC)]
- cellular entry of FITC-peptide: effective for entry into MRSA

Sequence: KFFKFFKFFK (also: FITC label, site not given here) [cell penetrating peptide, tested conjugated to FITC]
- cellular entry of FITC-peptide: effective for cellular entry

Sequence: RFFRFFRFFR (also: FITC label, site not given here) [cell penetrating peptide, tested conjugated to FITC]
- cellular entry of FITC-peptide: effective for cellular entry

— patent US9909123B2, “Antisense molecules for treatment of Staphylococcus aureus infection” (priority 2013, dated 2018)
